Measurements from patent publication US7659404B2, “Broad spectrum 2-(substituted-amino)-benzothiazole sulfonamide HIV protease inhibitors” (Tibotec Pharmaceuticals Ltd., priority 2001, dated 2010).
Like-named read-outs stand apart in the source and are kept apart here.

Legend:
[1] = system: clinically isolated HIV strain Q; assay: Antiviral spectrum, cellular assay (fold resistance), strain Q; assay type: cell-based; details: FR=EC50(mutant strain)/EC50(HIV-1 strain LAI)
Protocol: (§1) HIV- or mock-infected MT4 cells were incubated for five days in the presence of various concentrations of the inhibitor. At the end of the incubation period, all HIV-infected cells have been killed by the replicating virus in the control cultures in the absence of any inhibitor. Cell viability is measured by measuring the concentration of MTT, a yellow, water soluble tetrazolium dye that is converted to a purple, water insoluble formazan in the mitochondria of living cells only. Upon solubilization of the resulting formazan crystals with isopropanol, the absorbance of the solution is monitored at 540 nm. The values correlate directly to the number of living cells remaining in the culture at the completion of the five day incubation. The inhibitory activity of the compound was monitored on the virus-infected cells and was expressed as EC50 and EC90. These values represent the amount of the compound required to protect 50% and 90%, respectively, of the cells from the cytopathogenic effect of the virus. The toxicity of the compound was measured on the mock-infected cells and was expressed as CC50, which represents the concentration of compound required to inhibit the growth of the cells by 50%. The selectivity index (SI) (ratio CC50/EC50) is an indication of the selectivity of the anti-HIV activity of the inhibitor.
(§2) Because of the increasing emergence of drug resistant HIV strains, the present compounds were tested for their potency against clinically isolated HIV strains harboring several mutations. These mutations are associated with resistance to protease inhibitors and result in viruses that show various degrees of phenotypic cross-resistance to the currently commercially available drugs such as for instance saquinavir, ritonavir, nelfinavir, indinavir and amprenavir.
(§3) As a measure of the broad spectrum activity of the present compounds, the fold resistance (FR) defined as FR=EC50(mutant strain)/EC50(HIV-1 strain LAI).

[2] = system: clinically isolated HIV strain P; assay: Antiviral spectrum, cellular assay (fold resistance), strain P; assay type: cell-based; details: FR=EC50(mutant strain)/EC50(HIV-1 strain LAI)
Protocol: as §1, §2, §3

[3] = system: clinically isolated HIV strain I; assay type: cell-based; details: FR=EC50(mutant strain)/EC50(HIV-1 strain LAI)
Method in brief: (§4)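 MT4 cells, HIV- or mock-infected, were cultured five days with a range of inhibitor concentrations, and viability was then read by MTT conversion to formazan (isopropanol-solubilized, A540 nm). EC50/EC90 are the concentrations protecting 50%/90% of infected cells from viral cytopathic effect. Fold resistance = EC50(mutant strain)/EC50(HIV-1 LAI).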

[4] = system: clinically isolated HIV strain H; assay type: cell-based; details: FR=EC50(mutant strain)/EC50(HIV-1 strain LAI)
Method in brief: as §4

[5] = system: clinically isolated HIV strain T; assay type: cell-based; details: FR=EC50(mutant strain)/EC50(HIV-1 strain LAI)
Method in brief: as §4

[6] = system: clinically isolated HIV strain O; assay type: cell-based; details: FR=EC50(mutant strain)/EC50(HIV-1 strain LAI)
Method in brief: as §4

[7] = system: clinically isolated HIV strain E; assay: Antiviral spectrum, cellular assay (fold resistance), strain E; assay type: cell-based; details: FR=EC50(mutant strain)/EC50(HIV-1 strain LAI)
Protocol: as §1, §2, §3

[8] = system: clinically isolated HIV strain L; assay: Antiviral spectrum, cellular assay (fold resistance), strain L; assay type: cell-based; details: FR=EC50(mutant strain)/EC50(HIV-1 strain LAI)
Protocol: as §1, §2, §3

[9] = system: clinically isolated HIV strain D; assay: Antiviral spectrum, cellular assay (fold resistance), strain D; assay type: cell-based; details: FR=EC50(mutant strain)/EC50(HIV-1 strain LAI)
Protocol: as §1, §2, §3

[10] = system: clinically isolated HIV strain C; assay: Antiviral spectrum, cellular assay (fold resistance), strain C; assay type: cell-based; details: FR=EC50(mutant strain)/EC50(HIV-1 strain LAI)
Protocol: as §1, §2, §3

virus strain S (R13080) = assay: microbe, parasite or virus in culture; assay type: cell-based, HIV; details: FR=EC50(mutant strain)/EC50(HIV-1 strain LAI); strain S
Method in brief: as §4

virus strain F (R13025) = assay: microbe, parasite or virus in culture; assay type: cell-based, HIV; details: FR=EC50(mutant strain)/EC50(HIV-1 strain LAI); strain F
Method in brief: as §4

[11] = system: clinically isolated HIV strain A; assay: Antiviral spectrum, cellular assay (fold resistance), strain A; assay type: cell-based; details: FR=EC50(mutant strain)/EC50(HIV-1 strain LAI)
Protocol: as §1, §2, §3

[12] = system: clinically isolated HIV strain G; assay: Antiviral spectrum, cellular assay (fold resistance), strain G; assay type: cell-based; details: FR=EC50(mutant strain)/EC50(HIV-1 strain LAI)
Protocol: as §1, §2, §3

[13] = system: clinically isolated HIV strain R; assay: Antiviral spectrum, cellular assay (fold resistance), strain R; assay type: cell-based; details: FR=EC50(mutant strain)/EC50(HIV-1 strain LAI)
Protocol: as §1, §2, §3

[14] = system: clinically isolated HIV strain N; assay: Antiviral spectrum, cellular assay (fold resistance), strain N; assay type: cell-based; details: FR=EC50(mutant strain)/EC50(HIV-1 strain LAI)
Protocol: as §1, §2, §3

HIV-1 strain LAI = assay: Cellular anti-HIV assay in MT4 cells (MTT), wild type laboratory strain; assay type: cell-based; details: read-out: EC50 value against HIV-1 strain LAI
Protocol: The compounds of the present invention were examined for anti-viral activity in a cellular assay. […] The cellular assay was performed according to the following procedure.
Cellular Assay Experimental Method:
as §1

[15] = system: clinically isolated HIV strain J; assay type: cell-based; details: FR=EC50(mutant strain)/EC50(HIV-1 strain LAI)
Method in brief: as §4

[16] = system: clinically isolated HIV strain M; assay: Antiviral spectrum, cellular assay (fold resistance), strain M; assay type: cell-based; details: FR=EC50(mutant strain)/EC50(HIV-1 strain LAI)
Protocol: as §1, §2, §3

[17] = system: clinically isolated HIV strain B; assay: Antiviral spectrum, cellular assay (fold resistance), strain B; assay type: cell-based; details: FR=EC50(mutant strain)/EC50(HIV-1 strain LAI)
Protocol: as §1, §2, §3

[18] = system: clinically isolated HIV strain K; assay: Antiviral spectrum, cellular assay (fold resistance), strain K; assay type: cell-based; details: FR=EC50(mutant strain)/EC50(HIV-1 strain LAI)
Protocol: as §1, §2, §3

[19] = Human immunodeficiency virus 1, 120 h, MT4 cells, five days, MTT
[20] = Human immunodeficiency virus 1, MT4, 120 h

Compound	fold resistance (FR), strain I [3]	fold resistance (FR), strain H [4]	fold resistance (FR), strain T [5]	fold resistance (FR), strain O [6]	fold resistance (FR), strain S (virus strain S (R13080))	fold resistance (FR), strain F (virus strain F (R13025))	EC50 (HIV-1 strain LAI; [19])	fold resistance (FR), strain J [15]	EC50 (HIV-1 strain LAI; [20])	other results
CC(C)CN(CC(O)C(Cc1ccccc1)NC(=O)OC1COC2OCCC12)S(=O)(=O)c1ccc2nc(NC(=O)CN(C)C)sc2c1 (mixture of isomers) [Compound 3]	0.8	1.0	34.2	1.0	1.8	1.1	–	–	–	fold resistance (FR), strain Q [1]: 0.5; fold resistance (FR), strain P [2]: 0.4; fold resistance (FR), strain E [7]: 0.4; fold resistance (FR), strain L [8]: 0.3; fold resistance (FR), strain D [9]: 0.8; fold resistance (FR), strain C [10]: 0.4; fold resistance (FR), strain A [11]: 0.4; fold resistance (FR), strain G [12]: 0.4; fold resistance (FR), strain R [13]: 0.5; fold resistance (FR), strain N [14]: 2.3
CCN1CCCC1CNc1nc2ccc(S(=O)(=O)N(CC(C)C)C[C@@H](O)[C@H](Cc3ccccc3)NC(=O)O[C@H]3CO[C@H]4OCC[C@H]43)cc2s1 (stereo partly drawn) [Compound 93]	–	–	–	–	4.68	1.1	< 50 nM	–	–	–
CC(C)CN(CC(O)C(Cc1ccccc1)NC(=O)OC1COC2OCCC12)S(=O)(=O)c1ccc2nc(NCC[N+](C)(C)[O-])sc2c1 (stereo not drawn) [Compound 27]	1.3	1.2	5.4	0.6	5.1	1.4	–	0.7	> 500 nM	–
CC(=O)N(CCN1CCCC1)c1nc2ccc(S(=O)(=O)N(CC(C)C)CC(O)C(Cc3ccccc3)NC(=O)OC3COC4OCCC34)cc2s1 (stereo not drawn) [Compound 19]	1.1	2.1	10.5	0.5	2.2	2.4	< 50 nM	0.6	–	–
CC(C)CN(C[C@@H](O)[C@H](Cc1ccccc1)NC(=O)OC1COC2OCCC12)S(=O)(=O)c1ccc2nc(NCCN(C)C)sc2c1 (mixture of isomers) [Compound 4]	1.2	1.9	48.8	0.5	2.9	2.2	< 50 nM	0.5	–	–
CC(=O)N(C)c1nc2ccc(S(=O)(=O)N(Cc3ccccn3)CC(O)C(Cc3ccccc3)NC(=O)OCc3c(C)cccc3C)cc2s1 (stereo not drawn) [Compound 31]	–	–	–	–	–	–	–	–	> 500 nM	–
CC(C)CN(CC(O)C(Cc1ccccc1)NC(=O)OC1COCC1N(C)C)S(=O)(=O)c1ccc2nc(NCCN(C)C)sc2c1 (stereo not drawn) [Compound 44]	7.5	29.4	89.3	11.2	89.3	80.2	–	29.5	50 to 500 nM	–
CC(=O)Nc1nc2ccc(S(=O)(=O)N(CCNc3ccccn3)CC(O)C(Cc3ccccc3)NC(=O)OC3COC4OCCC34)cc2s1 (stereo not drawn) [Compound 29]	–	–	–	–	–	–	–	–	50 to 500 nM	–
CC(C)CN(C[C@@H](O)[C@H](Cc1ccccc1)NC(=O)OCc1cccnc1)S(=O)(=O)c1ccc2nc(NC(=O)CN3CCCC3)sc2c1 [Compound 61]	4.8	5.2	1090.0	7.1	80.0	32.7	–	10.6	–	–
CC(C)CN(C[C@@H](O)[C@H](Cc1ccccc1)NC(=O)OCc1cncs1)S(=O)(=O)c1ccc2nc(NCCN3CCNCC3)sc2c1 [Compound 57]	1.3	1.6	9.0	1.3	1.6	1.3	–	1.3	–	–
Cc1c(N)cccc1C(=O)N[C@@H](Cc1ccccc1)[C@H](O)CN(CC(C)C)S(=O)(=O)c1ccc2nc(NC(=O)CN3CCN(C)CC3)sc2c1.O=C(O)C(F)(F)F [Compound 66]	1.0	0.9	87.9	1.0	5.6	4.0	–	1.2	–	–
CC(C)CN(CC(O)C(Cc1ccccc1)NC(=O)OC1COC2OCCC12)S(=O)(=O)c1ccc2nc(NC(=O)CN3CCNCC3)sc2c1 (mixture of isomers) [Compound 5]	0.6	0.6	2.6	0.4	0.6	0.5	–	0.3	–	–
CC(C)CN(CC(O)C(Cc1ccccc1)NC(=O)OC1COC2OCCC12)S(=O)(=O)c1ccc2nc(NC(=O)CN(C)C)sc2c1 (stereo not drawn) [Compound 11]	0.5	0.9	7.3	0.7	1.1	0.7	< 50 nM	0.4	–	fold resistance (FR), strain Q [1]: 0.0; fold resistance (FR), strain P [2]: 0.3; fold resistance (FR), strain M [16]: 0.4; fold resistance (FR), strain B [17]: 0.4; fold resistance (FR), strain L [8]: 0.3; fold resistance (FR), strain D [9]: 0.3; fold resistance (FR), strain C [10]: 0.5; fold resistance (FR), strain K [18]: 0.4; fold resistance (FR), strain A [11]: 0.3; fold resistance (FR), strain G [12]: 0.5; fold resistance (FR), strain R [13]: 0.5; fold resistance (FR), strain N [14]: 1.6
CC(=O)N(C)c1nc2ccc(S(=O)(=O)N(Cc3ccccn3)CC(O)C(Cc3ccccc3)NC(=O)OC3COC4OCCC34)cc2s1 (stereo not drawn) [Compound 33]	7.1	6.8	467.3	3.4	467.3	7.6	< 50 nM	5.9	–	–
CC(C)CN(CC(O)C(Cc1ccccc1)NC(=O)OC1CCOC1)S(=O)(=O)c1ccc2nc(NCCN(C)C)sc2c1 (stereo not drawn) [Compound 56]	3.2	4.6	509.6	2.1	67.1	33.1	–	2.8	< 50 nM	–
